According to the CheMixHub viscosity set:
Where “and” joins values, the source holds several entries; their conditions need not be identical. Equal entries are not always repeated.

Legend:
[1] = xn = mol fraction of the nth substance listed

C#CCO
viscosity [mPa·s]
Settings	303.15 K	308.15 K	313.15 K	318.15 K	323.15 K
101 kPa	1.345	1.214	1.103	1.01	0.9277
101.32 kPa	–	1.221	1.12	1.017	0.9331

C1COCO1
viscosity
Settings	298.15 K	303.15 K	308.15 K	313.15 K	318.15 K	323.15 K
101 kPa	0.587 mPa·s	0.62 mPa·s	0.58 mPa·s and 0.513 mPa·s and 0.5128 mPa·s	0.55 mPa·s	0.53 mPa·s and 0.458 mPa·s and 0.458 mPa·s	0.4183 mPa·s and 0.51 mPa·s
101.3 kPa	0.5919 mPa·s	–	–	0.5 mPa·s	–	–

CC(=O)c1ccccc1
viscosity
Settings	303.15 K	308.15 K	313.15 K	323.15 K
100 kPa	1.455 mPa·s	1.415 mPa·s	1.233 mPa·s and 1.269 mPa·s	1.061 mPa·s
101 kPa	1.533 mPa·s (2×) and 1.533 mPa·s and 1.533 mPa·s	–	1.266 mPa·s and 1.266 mPa·s and 1.269 mPa·s	1.051 mPa·s
101.3 kPa	–	–	1.317 mPa·s	1.285 mPa·s

CC(C)OC(C)C
viscosity
Settings	293.15 K	298.15 K	303.15 K	308.15 K	313.15 K	318.15 K	323.15 K
100 kPa	0.332 mPa·s	0.319 mPa·s	0.304 mPa·s	0.29 mPa·s and 0.29 mPa·s	0.274 mPa·s	0.261 mPa·s	0.246 mPa·s
101 kPa	–	0.315 mPa·s	–	–	–	–	–
101.33 kPa	0.34 mPa·s	0.322 mPa·s	0.31 mPa·s	0.293 mPa·s	0.279 mPa·s	–	–

CC(N)CN (stereo unspecified)
viscosity
Settings	293.15 K	298.15 K	303.15 K	308.15 K	313.15 K	318.15 K	323.15 K
101 kPa	–	1.481 mPa·s	1.314 mPa·s and 1.325 mPa·s	1.175 mPa·s and 1.192 mPa·s	1.058 mPa·s and 1.084 mPa·s	0.9597 mPa·s and 0.9891 mPa·s	0.9091 mPa·s
101.33 kPa	1.61 mPa·s	1.49 mPa·s and 1.47 mPa·s	1.31 mPa·s and 1.34 mPa·s	1.19 mPa·s and 1.13 mPa·s	1.06 mPa·s and 1.06 mPa·s	0.96 mPa·s and 0.97 mPa·s	–

CCC(C)C(C)C (stereo unspecified)
Settings	viscosity [mPa·s]
298.15 K, 101.33 kPa	0.3898

CCC(O)CC
viscosity [mPa·s]
Settings	293.15 K	298.15 K	303.15 K	308.15 K	313.15 K	318.15 K	323.15 K
101 kPa	4.646	4.81	3.506	2.773	2.23	1.895	1.528
101.33 kPa	–	–	3.852	–	2.272	–	1.543

CCCCCCCCC
viscosity
Settings	298.15 K	303.15 K	308.15 K	313.15 K	318.15 K	323.15 K
100 kPa	0.668 mPa·s	0.627 mPa·s	–	0.556 mPa·s	0.526 mPa·s	0.498 mPa·s
101 kPa	0.6626 mPa·s and 0.6588 mPa·s and 0.668 mPa·s	0.641 mPa·s	0.5808 mPa·s and 0.588 mPa·s and 0.5974 mPa·s	0.5652 mPa·s	0.512 mPa·s	0.5073 mPa·s
101.33 kPa	–	–	–	0.535 mPa·s	0.505 mPa·s	–

CCCCCCCCc1ccccc1
102 kPa
Settings	viscosity [mPa·s]
293.15 K	2.57
303.15 K	2.08
313.15 K	1.73
323.15 K	1.46

CCCOCC(C)O (stereo unspecified)
viscosity [mPa·s]
Settings	298.15 K	303.15 K	308.15 K	318.15 K
100 kPa	2.451	2.094	1.885	–
101.33 kPa	2.389	–	1.822	1.416

CCCOCCC
Settings	viscosity [mPa·s]
298.15 K, 101.33 kPa	0.4024

CCN(CCO)CCO
101 kPa
Settings	viscosity [mPa·s]
303.15 K	48.27
308.15 K	36.72
313.15 K	28.36
318.15 K	22.31
323.15 K	17.78

CC[NH2+]CC.O=S(=O)([O-])O
101 kPa
Settings	viscosity [mPa·s]
303.15 K	28.9
308.15 K	24.6
313.15 K	21.9

CN(C)P(=O)(N(C)C)N(C)C
Settings	viscosity [mPa·s]
303.15 K, 101.3 kPa	2.928

CN1CCCCCC1=O
Settings	viscosity [mPa·s]
298.16 K, 101 kPa	4.92

COCOC
viscosity [mPa·s]
Settings	293.15 K	298.15 K	303.1 K	303.15 K	308.15 K	313.15 K
100 kPa	0.371	0.357	–	0.346	0.337	0.329
101 kPa	–	–	0.304	–	–	–

Cc1cccc(C)n1
viscosity
Settings	101 kPa	101.33 kPa
293.15 K	–	0.8373 mPa·s
295.15 K	0.929 mPa·s	–
298.15 K	0.8777 mPa·s	0.7813 mPa·s
298.2 K	0.806 mPa·s	–
300.12 K	–	0.847 mPa·s
303 K	0.7635 mPa·s	–
303.12 K	–	0.833 mPa·s
303.24 K	0.753 mPa·s	–
306.99 K	–	0.774 mPa·s
308.15 K	–	0.6861 mPa·s
308.26 K	0.708 mPa·s	–
313 K	0.6811 mPa·s and 0.6687 mPa·s	–
313.34 K	0.663 mPa·s	–
318.15 K	–	0.6032 mPa·s
318.39 K	0.627 mPa·s	–
323 K	0.6095 mPa·s and 0.5945 mPa·s	–

ClC(Cl)C(Cl)(Cl)Cl
101 kPa
Settings	viscosity [mPa·s]
298.15 K	2.26
303.15 K	1.971

O=S(Cl)Cl
Settings	viscosity [mPa·s]
298.15 K, 101 kPa	0.6194

O=S(Cl)Cl + [Cl-].[Cl-].[Cl-].[Cl-].[Sn+4]
[1], 298.15 K, 101 kPa
Settings	viscosity [mPa·s]
x1 = 0.402	0.7259
x1 = 0.517	0.7057
x1 = 0.803	0.6524

ClC(Cl)C(Cl)(Cl)Cl + c1ccc(Oc2ccccc2)cc1
[1], 298.15 K, 101 kPa
Settings	viscosity [mPa·s]
x2 = 0.2642	2.64
x2 = 0.5109	2.97
x2 = 0.7611	3.36

C1COCO1 + c1ccccc1
[1], 101.3 kPa
Settings	viscosity [mPa·s]
298.15 K, x2 = 0.0968	0.5944
298.15 K, x2 = 0.199	0.597
298.15 K, x2 = 0.3032	0.5997
298.15 K, x2 = 0.4021	0.6022
298.15 K, x2 = 0.505	0.6045
298.15 K, x2 = 0.6016	0.6064
298.15 K, x2 = 0.704	0.6079
298.15 K, x2 = 0.7993	0.6089
298.15 K, x2 = 0.8946	0.6094
313.15 K, x2 = 0.1006	0.5001
313.15 K, x2 = 0.1994	0.5003
313.15 K, x2 = 0.299	0.5005
313.15 K, x2 = 0.3987	0.5005
313.15 K, x2 = 0.5003	0.5004
313.15 K, x2 = 0.5985	0.4998
313.15 K, x2 = 0.6993	0.4988
313.15 K, x2 = 0.7998	0.4976
313.15 K, x2 = 0.8987	0.4959

CC(=O)c1ccccc1 + c1ccccc1
[1], 298.15 K, 101 kPa
Settings	viscosity [mPa·s]
x1 = 0.5	0.942
x1 = 0.75	1.27

CCC(O)CC + c1ccccc1
[1], 293.15 K, 101 kPa
Settings	viscosity [mPa·s]
x1 = 0.00635	0.6446
x1 = 0.01101	0.6433
x1 = 0.01253	0.643
x1 = 0.01995	0.6415
x1 = 0.02106	0.6411
x1 = 0.02501	0.641
x1 = 0.02806	0.6407
x1 = 0.03344	0.6406
x1 = 0.03446	0.6405
x1 = 0.03706	0.6399
x1 = 0.04178	0.6401
x1 = 0.04896	0.6415
x1 = 0.05587	0.6414
x1 = 0.06451	0.6436
x1 = 0.08637	0.6486
x1 = 0.1808	0.6856
x1 = 0.2725	0.7429
x1 = 0.3756	0.835
x1 = 0.468	0.9578
x1 = 0.6521	1.402
x1 = 0.7757	1.943
x1 = 0.8899	2.92

CCCCCCCC/C=C\CCCCCCCC(=O)OCC(COC(=O)CCCCCCC/C=C\CCCCCCCC)OC(=O)CCCCCCC/C=C\CCCCCCCC + c1ccccc1
viscosity [mPa·s], [1], 101.3 kPa
Settings	x1 = 0.000368	x1 = 0.000535	x1 = 0.001078	x1 = 0.002049	x1 = 0.004187	x1 = 0.006457	x1 = 0.008697	x1 = 0.01009
298.15 K	0.613	0.6159	0.6281	0.6494	0.7009	0.7579	0.8092	0.8347
303.15 K	0.572	0.5754	0.5855	0.6052	0.6529	0.7052	0.7525	0.7753
308.15 K	0.5349	0.5384	0.5476	0.5658	0.6095	0.6577	0.7013	0.7219

Cc1cccc(C)n1 + c1ccccc1
viscosity [mPa·s], [1], 101 kPa
Settings	x1 = 0.0985	x1 = 0.1989	x1 = 0.2996	x1 = 0.3945	x1 = 0.5025	x1 = 0.5994	x1 = 0.6976	x1 = 0.8006	x1 = 0.9013
303 K	0.5677	0.58	0.607	0.6191	0.6385	0.6614	0.6823	0.7108	0.7403
313 K	0.501	0.514	0.5301	0.5472	0.5654	0.5824	0.6012	0.6267	0.648
323 K	0.4471	0.4595	0.4735	0.4858	0.5011	0.5177	0.5355	0.5569	0.5778

O=S(Cl)Cl + c1ccccc1
[1], 298.15 K, 101 kPa
Settings	viscosity [mPa·s]
x1 = 0.181	0.5962
x1 = 0.366	0.5999
x1 = 0.481	0.602
x1 = 0.686	0.6068
x1 = 0.877	0.6165
